Measured values: patent US10570129B2 (Zoetis Services LLC, priority 2015, dated 2020)

Assays:
[1] = system: D. immitis microfilariae; assay: Dirofilaria immitis, microfilariae (DiMF) in vitro motility assay; type: cell-based; details: Dirofilaria immitis, 72 h, read-out: DiMF minimally effective dose (MEC)
[2] = system: Haemonchus contortus L3; assay: microbe, parasite or virus in culture; type: cell-based; details: Haemonchus contortus, 96 h, read-out: HcL3 Minimal Effective Concentration (MEC)

SMILES | minimal effective concentration [1] | minimal effective concentration [2]
N#Cc1ccc(/C=C/CN2CCc3c(c4cc(OC(F)(F)F)ccc4n3C(=O)NCc3ccnc(F)c3)C2)cc1F [Example 402, (E)-2-(3-(4-cyano-3-fluorophenyl)allyl)-N-((2-fluoropyridin-4-yl)methyl)-8-(trifluoromethoxy)-1,2,3,4-tetrahydro-5H-pyrido[4,3-b]indole-5-carboxamide] | 5.7 µM | 0.3 µM
O=C(NCc1ccnc(F)c1)n1c2c(c3cc(OC(F)(F)F)ccc31)CN(C/C=C/c1ccc(F)cc1F)CC2 [Example 403, (E)-2-(3-(2,4-difluorophenyl)allyl)-N-((2-fluoropyridin-4-yl)methyl)-8-(trifluoromethoxy)-1,2,3,4-tetrahydro-5H-pyrido[4,3-b]indole-5-carboxamide] | 18.2 µM | 0.3 µM
O=C(NCc1ccnc(F)c1)n1c2c(c3cc(OC(F)(F)F)ccc31)CN(C/C=C/c1ccc(F)c(Cl)c1)CC2 [Example 404, (E)-2-(3-(3-chloro-4-fluorophenyl)allyl)-N-((2-fluoropyridin-4-yl)methyl)-8-(trifluoromethoxy)-1,2,3,4-tetrahydro-5H-pyrido[4,3-b]indole-5-carboxamide] | 18.2 µM | 1 µM
O=C(NCc1ccnc(F)c1)n1c2c(c3cc(OC(F)(F)F)ccc31)CN(C/C=C/c1ccc(F)c(F)c1)CC2 [Example 405, (E)-2-(3-(3,4-difluorophenyl)allyl)-N-((2-fluoropyridin-4-yl)methyl)-8-(trifluoromethoxy)-1,2,3,4-tetrahydro-5H-pyrido[4,3-b]indole-5-carboxamide] | 5.7 µM | 0.3 µM
O=C(NCc1ccnc(F)c1)n1c2c(c3cc(OC(F)(F)F)ccc31)CN(C/C=C/c1cc(F)c(F)c(F)c1)CC2 [Example 406, (E)-N-((2-fluoropyridin-4-yl)methyl)-8-(trifluoromethoxy)-2-(3-(3,4,5-trifluorophenyl)allyl)-1,2,3,4-tetrahydro-5H-pyrido[4,3-b]indole-5-carboxamide] | 13.5 µM | 0.4 µM
O=C(NCc1ccnc(F)c1)n1c2c(c3cc(OC(F)(F)F)ccc31)CN(C/C=C/c1cc(F)cc(F)c1)CC2 [Example 407, (E)-2-(3-(3,5-difluorophenyl)allyl)-N-((2-fluoropyridin-4-yl)methyl)-8-(trifluoromethoxy)-1,2,3,4-tetrahydro-5H-pyrido[4,3-b]indole-5-carboxamide] | 5.7 µM | 1 µM
O=C(NCc1ccnc(F)c1)n1c2c(c3cc(OC(F)(F)F)ccc31)CN(C/C=C/c1ccc(Cl)cc1)CC2 [Example 408, (E)-2-(3-(4-chlorophenyl)allyl)-N-((2-fluoropyridin-4-yl)methyl)-8-(trifluoromethoxy)-1,2,3,4-tetrahydro-5H-pyrido[4,3-b]indole-5-carboxamide] | 10 µM | 1 µM
O=C(NCc1cnc(Cl)s1)n1c2c(c3cc(OC(F)(F)F)ccc31)CN(C/C=C/c1ccc(Cl)cc1)CC2 [Example 409, (E)-2-(3-(4-chlorophenyl)allyl)-N-((2-chlorothiazol-5-yl)methyl)-8-(trifluoromethoxy)-1,2,3,4-tetrahydro-5H-pyrido[4,3-b]indole-5-carboxamide] | 10 µM | 1 µM
O=C(NCc1ccnc(Cl)c1)n1c2c(c3cc(C(F)(F)F)ccc31)CN(C/C=C/c1ccc(Cl)c(F)c1)CC2 [Example 410, (E)-2-(3-(4-chloro-3-fluorophenyl)allyl)-N-((2-chloropyridin-4-yl)methyl)-8-(trifluoromethyl)-1,2,3,4-tetrahydro-5H-pyrido[4,3-b]indole-5-carboxamide] | 10 µM | 1.8 µM
N#Cc1ccc(/C=C/CN2CCc3c(c4cc(C(F)(F)F)ccc4n3C(=O)NCc3ccnc(Cl)c3)C2)cc1F [Example 411, (E)-N-((2-chloropyridin-4-yl)methyl)-2-(3-(4-cyano-3-fluorophenyl)allyl)-8-(trifluoromethyl)-1,2,3,4-tetrahydro-5H-pyrido[4,3-b]indole-5-carboxamide] | 1.8 µM | 0.03 µM
O=C(NCc1ccnc(Cl)c1)n1c2c(c3cc(C(F)(F)F)ccc31)CN(C/C=C/c1ccc(F)cc1F)CC2 [Example 412, (E)-N-((2-chloropyridin-4-yl)methyl)-2-(3-(2,4-difluorophenyl)allyl)-8-(trifluoromethyl)-1,2,3,4-tetrahydro-5H-pyrido[4,3-b]indole-5-carboxamide] | 10 µM | 1.8 µM
O=C(NCc1ccnc(Cl)c1)n1c2c(c3cc(C(F)(F)F)ccc31)CN(C/C=C/c1ccc(F)c(Cl)c1)CC2 [Example 413, (E)-2-(3-(3-chloro-4-fluorophenyl)allyl)-N-((2-chloropyridin-4-yl)methyl)-8-(trifluoromethyl)-1,2,3,4-tetrahydro-5H-pyrido[4,3-b]indole-5-carboxamide] | > 100 µM | 1.8 µM
O=C(NCc1ccnc(Cl)c1)n1c2c(c3cc(C(F)(F)F)ccc31)CN(C/C=C/c1ccc(F)c(F)c1)CC2 [Example 414, (E)-N-((2-chloropyridin-4-yl)methyl)-2-(3-(3,4-difluorophenyl)allyl)-8-(trifluoromethyl)-1,2,3,4-tetrahydro-5H-pyrido[4,3-b]indole-5-carboxamide] | 10 µM | 1 µM
O=C(NCc1ccnc(F)c1)n1c2c(c3cc(C(F)(F)F)ccc31)CN(C/C=C/c1ccc(Cl)c(F)c1)CC2 [Example 415, (E)-2-(3-(4-chloro-3-fluorophenyl)allyl)-N-((2-fluoropyridin-4-yl)methyl)-8-(trifluoromethyl)-1,2,3,4-tetrahydro-5H-pyrido[4,3-b]indole-5-carboxamide] | 12.4 µM | 2.7 µM
N#Cc1ccc(/C=C/CN2CCc3c(c4cc(C(F)(F)F)ccc4n3C(=O)NCc3ccnc(F)c3)C2)cc1F [Example 416, (E)-2-(3-(4-cyano-3-fluorophenyl)allyl)-N-((2-fluoropyridin-4-yl)methyl)-8-(trifluoromethyl)-1,2,3,4-tetrahydro-5H-pyrido[4,3-b]indole-5-carboxamide] | 57.4 µM | 1.8 µM
O=C(NCc1ccnc(F)c1)n1c2c(c3cc(C(F)(F)F)ccc31)CN(C/C=C/c1ccc(Cl)c(Cl)c1)CC2 [Example 422, (E)-2-(3-(3,4-dichlorophenyl)allyl)-N-((2-fluoropyridin-4-yl)methyl)-8-(trifluoromethyl)-1,2,3,4-tetrahydro-5H-pyrido[4,3-b]indole-5-carboxamide] | 18.2 µM | 10 µM
O=C(NCc1ccnc(Cl)c1)n1c2c(c3ccc(C(F)(F)F)cc31)CN(C/C=C/c1ccc(C(F)(F)F)cc1)CC2 [Example 425, (E)-N-((2-chloropyridin-4-yl)methyl)-7-(trifluoromethyl)-2-(3-(4-(trifluoro-methyl)phenyl)allyl)-1,2,3,4-tetrahydro-5H-pyrido[4,3-b]indole-5-carboxamide] | 15.8 µM | > 100 µM
Cc1ccc2c(c1)c1c(n2C(=O)NCc2ccnc(Cl)c2)CCN(C/C=C/c2ccc(C#N)cc2)C1 [Example 430, (E)-N-((2-chloropyridin-4-yl)methyl)-2-(3-(4-cyanophenyl)allyl)-8-methyl-1,2,3,4-tetrahydro-5H-pyrido[4,3-b]indole-5-carboxamide] | > 100 µM | 1 µM
Cc1ccc2c(c1)c1c(n2C(=O)NCc2ccnc(Cl)c2)CCN(C/C=C/c2ccc(Cl)cc2)C1 [Example 431, (E)-2-(3-(4-chlorophenyl)allyl)-N-((2-chloropyridin-4-yl)methyl)-8-methyl-1,2,3,4-tetrahydro-5H-pyrido[4,3-b]indole-5-carboxamide] | 3.3 µM | 1 µM
Cc1ccc2c(c1)c1c(n2C(=O)NCc2ccnc(Cl)c2)CCN(C/C=C/c2ccc(Cl)c(Cl)c2)C1 [Example 432, (E)-N-((2-chloropyridin-4-yl)methyl)-2-(3-(3,4-dichlorophenyl)allyl)-8-methyl-1,2,3,4-tetrahydro-5H-pyrido[4,3-b]indole-5-carboxamide] | 57.4 µM | 1 µM
Cc1ccc2c(c1)c1c(n2C(=O)NCc2ccnc(Cl)c2)CCN(C/C=C/c2ccc(F)cc2)C1 [Example 433, (E)-N-((2-chloropyridin-4-yl)methyl)-2-(3-(4-fluorophenyl)allyl)-8-methyl-1,2,3,4-tetrahydro-5H-pyrido[4,3-b]indole-5-carboxamide] | 5.7 µM | 0.5 µM
Cc1ccc2c(c1)c1c(n2C(=O)NCc2ccnc(Cl)c2)CCN(C/C=C/c2ccc(OC(F)(F)F)cc2)C1 [Example 434, (E)-N-((2-chloropyridin-4-yl)methyl)-8-methyl-2-(3-(4-(trifluoromethoxy)-phenyl)allyl)-1,2,3,4-tetrahydro-5H-pyrido[4,3-b]indole-5-carboxamide] | 5.7 µM | 3.3 µM
Cc1ccc2c(c1)c1c(n2C(=O)NCc2ccnc(Cl)c2)CCN(C/C=C/c2ccc(C(F)(F)F)cc2)C1 [Example 435, (E)-N-((2-chloropyridin-4-yl)methyl)-8-methyl-2-(3-(4-(trifluoromethyl)-phenyl)allyl)-1,2,3,4-tetrahydro-5H-pyrido[4,3-b]indole-5-carboxamide] | 5.7 µM | 5.7 µM
O=C(NCc1ccnc(Cl)c1)n1c2c(c3c4ccccc4ccc31)CN(C/C=C/c1ccc(Cl)cc1)CC2 [Example 436, (E)-10-(3-(4-chlorophenyl)allyl)-N-((2-chloropyridin-4-yl)methyl)-8,9,10,11-tetrahydro-7H-benzo[e]pyrido[4,3-b]indole-7-carboxamide] | 18.2 µM | > 100 µM
